Molecular target: T1, His tagged full-length PTP1B protein (Homo sapiens, UniProt P18031)
T1 construct: made in house
T1 sequence (P18031 with tags, fused parts or gaps): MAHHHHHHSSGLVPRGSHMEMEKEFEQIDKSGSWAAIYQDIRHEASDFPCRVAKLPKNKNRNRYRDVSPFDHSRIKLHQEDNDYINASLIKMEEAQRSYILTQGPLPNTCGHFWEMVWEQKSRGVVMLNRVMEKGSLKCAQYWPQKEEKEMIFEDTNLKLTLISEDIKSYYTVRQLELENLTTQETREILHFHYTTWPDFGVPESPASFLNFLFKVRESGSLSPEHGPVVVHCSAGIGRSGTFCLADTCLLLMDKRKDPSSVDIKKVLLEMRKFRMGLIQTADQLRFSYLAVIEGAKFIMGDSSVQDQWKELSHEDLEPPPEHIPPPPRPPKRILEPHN
Assay: Mobility Shift Assay (MSA) used to determine potency of PTP1B inhibitors
Assay type: biochemical
Settings: Table 2
Experimental: The enzymatic assay used to determine activity is a mobility shift assay using a LabChip EZ Reader by Caliper Life Sciences. The enzymatic reaction was carried out in assay buffer (50 mM HEPES pH 7.5, 1 mM EGTA, 10 mM EDTA, 0.01% Tween® 20, and 2 mM DTT). […] The enzyme (at 0.5 nM) was incubated with compound for 10 minutes at room temperature. […] The % inhibition was then used to calculate the IC50 values.

SMILES	IC50
C[C@@H](O)CCOc1ccc2cc(O)c(N3CC(=O)NS3(=O)=O)c(F)c2c1 [Compound 149, 5-{1-fluoro-3-hydroxy-7-[(3R)-3-hydroxybutoxy]naphthalen-2-yl}-1λ^6,2,5-thiadiazolidine-1,1,3-trione]	1 to 10 nM
C[C@@H](O)CCCc1ccc2cc(O)c(N3CC(=O)NS3(=O)=O)c(F)c2c1 [Compound 151, 5-{1-fluoro-3-hydroxy-7-[(4R)-4-hydroxypentyl]naphthalen-2-yl}-1λ^6,2,5-thiadiazolidine-1,1,3-trione]	1 to 10 nM
C[C@H](O)CCCc1ccc2cc(O)c(N3CC(=O)NS3(=O)=O)c(F)c2c1 [Compound 153, 5-{1-fluoro-3-hydroxy-7-[(4S)-4-hydroxypentyl]naphthalen-2-yl}-1λ^6,2,5-thiadiazolidine-1,1,3-trione]	1 to 10 nM
CCC(=O)CCOc1ccc2cc(O)c(N3CC(=O)NS3(=O)=O)c(F)c2c1 [Compound 155, 5-{1-fluoro-3-hydroxy-7-[(3-oxopentyl)oxy]naphthalen-2-yl}-1λ^6,2,5-thiadiazolidine-1,1,3-trione]	1 to 10 nM
O=C1CN(c2c(O)cc3ccc(OCCCC(F)(F)F)cc3c2F)S(=O)(=O)N1 [Compound 158, 5-[1-fluoro-3-hydroxy-7-(4,4,4-trifluorobutoxy)naphthalen-2-yl]-1λ^6,2,5-thiadiazolidine-1,1,3-trione]	1 to 10 nM
N#CC1(CCOc2ccc3cc(O)c(N4CC(=O)NS4(=O)=O)c(F)c3c2)CC1 [Compound 159, 1-(2-{[8-fluoro-6-hydroxy-7-(1,1,4-trioxo-1λ^6,2,5-thiadiazolidin-2-yl)naphthalen-2-yl]oxy}ethyl)cyclopropane-1-carbonitrile]	1 to 10 nM
COCC1(CCOc2ccc3cc(O)c(N4CC(=O)NS4(=O)=O)c(F)c3c2)CC1 [Compound 160, 5-(1-fluoro-3-hydroxy-7-{2-[1-(methoxymethyl)cyclopropyl]ethoxy}naphthalen-2-yl)-1λ^6,2,5-thiadiazolidine-1,1,3-trione]	1 to 10 nM
O=C1CN(c2c(O)cc3ccc(CNCC4CC4)cc3c2F)S(=O)(=O)N1 [Compound 161, 5-(7-{[(cyclopropylmethyl)amino]methyl}-1-fluoro-3-hydroxynaphthalen-2-yl)-1λ^6,2,5-thiadiazolidine-1,1,3-trione]	10 to 100 nM
CNCC(C)(C)CCOc1ccc2cc(O)c(N3CC(=O)NS3(=O)=O)c(F)c2c1 [Compound 163, 5-{7-[3,3-dimethyl-4-(methylamino)butoxy]-1-fluoro-3-hydroxynaphthalen-2-yl}-1λ^6,2,5-thiadiazolidine-1,1,3-trione]	> 100 nM
O=C1CN(c2c(O)cc3ccc(NCCc4ccccc4)cc3c2F)S(=O)(=O)N1 [Compound 164, 5-{1-fluoro-3-hydroxy-7-[(2-phenylethyl)amino]naphthalen-2-yl}-1λ^6,2,5-thiadiazolidine-1,1,3-trione]	> 100 nM
CC(C)(N)CCOc1ccc2cc(O)c(N3CC(=O)NS3(=O)=O)c(F)c2c1 [Compound 165, 5-[7-(3-amino-3-methylbutoxy)-1-fluoro-3-hydroxynaphthalen-2-yl]-1λ^6,2,5-thiadiazolidine-1,1,3-trione]	1 to 10 nM
O=C1CN(c2c(O)cc3ccc(NCCCC(F)(F)F)cc3c2F)S(=O)(=O)N1 [Compound 166, 5-{1-fluoro-3-hydroxy-7-[(4,4,4-trifluorobutyl)amino]naphthalen-2-yl}-1λ^6,2,5-thiadiazolidine-1,1,3-trione]	> 100 nM
O=C1CN(c2c(O)cc3ccc(C(F)F)cc3c2F)S(=O)(=O)N1 [Compound 167, 5-[7-(difluoromethyl)-1-fluoro-3-hydroxynaphthalen-2-yl]-1λ^6,2,5-thiadiazolidine-1,1,3-trione]	> 100 nM
O=C1CN(c2c(O)cc3ccc(NCCC(F)(F)F)cc3c2F)S(=O)(=O)N1 [Compound 169, 5-{1-fluoro-3-hydroxy-7-[(3,3,3-trifluoropropyl)amino]naphthalen-2-yl}-1λ^6,2,5-thiadiazolidine-1,1,3-trione]	10 to 100 nM
COC(C)(C)CCOc1ccc2cc(O)c(N3CC(=O)NS3(=O)=O)c(F)c2c1 [Compound 170, 5-[1-fluoro-3-hydroxy-7-(3-methoxy-3-methylbutoxy)naphthalen-2-yl]-1λ^6,2,5-thiadiazolidine-1,1,3-trione]	1 to 10 nM
CC(C)OCCNc1ccc2cc(O)c(N3CC(=O)NS3(=O)=O)c(F)c2c1 [Compound 172, 5-[1-fluoro-3-hydroxy-7-({2-[(propan-2-yl)oxy]ethyl}amino)naphthalen-2-yl]-1λ^6,2,5-thiadiazolidine-1,1,3-trione]	> 100 nM

SMILES	IC50
N#CCCCNc1ccc2cc(O)c(N3CC(=O)NS3(=O)=O)c(F)c2c1 [Compound 174, 4-{[8-fluoro-6-hydroxy-7-(1,1,4-trioxo-1λ^6,2,5-thiadiazolidin-2-yl)naphthalen-2-yl]amino}butanenitrile]	> 100 nM
O=C1CN(c2c(O)cc3ccc(CCO)cc3c2F)S(=O)(=O)N1 [Compound 175, 5-[1-fluoro-3-hydroxy-7-(2-hydroxyethyl)naphthalen-2-yl]-1λ^6,2,5-thiadiazolidine-1,1,3-trione]	10 to 100 nM
CC(C)(CN)CCOc1ccc2cc(O)c(N3CC(=O)NS3(=O)=O)c(F)c2c1 [Compound 176, 5-[7-(4-amino-3,3-dimethylbutoxy)-1-fluoro-3-hydroxynaphthalen-2-yl]-1λ^6,2,5-thiadiazolidine-1,1,3-trione]	1 to 10 nM
O=C1CN(c2c(O)cc3ccc(NCCN4CCC4)cc3c2F)S(=O)(=O)N1 [Compound 177, 5-(7-{[2-(azetidin-1-yl)ethyl]amino}-1-fluoro-3-hydroxynaphthalen-2-yl)-1λ^6,2,5-thiadiazolidine-1,1,3-trione]	> 100 nM
O=C1CN(c2c(O)cc3ccc(OC4CN(S(=O)(=O)C5CC5)C4)cc3c2F)S(=O)(=O)N1 [Compound 178, 5-(7-{[1-(cyclopropanesulfonyl)azetidin-3-yl]oxy}-1-fluoro-3-hydroxynaphthalen-2-yl)-1λ^6,2,5-thiadiazolidine-1,1,3-trione]	10 to 100 nM
COCCNc1ccc2cc(O)c(N3CC(=O)NS3(=O)=O)c(F)c2c1 [Compound 179, 5-{1-fluoro-3-hydroxy-7-[(2-methoxyethyl)amino]naphthalen-2-yl}-1λ^6,2,5-thiadiazolidine-1,1,3-trione]	> 100 nM
O=C1CN(c2c(O)cc3ccc(OCCC(F)(F)F)cc3c2F)S(=O)(=O)N1 [Compound 180, 5-[1-fluoro-3-hydroxy-7-(3,3,3-trifluoropropoxy)naphthalen-2-yl]-1λ^6,2,5-thiadiazolidine-1,1,3-trione]	10 to 100 nM
N#CC1(CNc2ccc3cc(O)c(N4CC(=O)NS4(=O)=O)c(F)c3c2)CC1 [Compound 181, 1-({[8-fluoro-6-hydroxy-7-(1,1,4-trioxo-1λ^6,2,5-thiadiazolidin-2-yl)naphthalen-2-yl]amino}methyl)cyclopropane-1-carbonitrile]	1 to 10 nM
O=C1CN(c2c(O)cc3ccc(OCCCn4cccn4)cc3c2F)S(=O)(=O)N1 [Compound 183, 5-{1-fluoro-3-hydroxy-7-[3-(1H-pyrazol-1-yl)propoxy]naphthalen-2-yl}-1λ^6,2,5-thiadiazolidine-1,1,3-trione]	1 to 10 nM
Nc1ccc(CS(=O)(=O)N2CC=C(c3ccc4cc(O)c(N5CC(=O)NS5(=O)=O)c(F)c4c3)C2)cc1 [Compound 184, 5-(7-{1-[(4-aminophenyl)methanesulfonyl]-2,5-dihydro-1H-pyrrol-3-yl}-1-fluoro-3-hydroxynaphthalen-2-yl)-1λ^6,2,5-thiadiazolidine-1,1,3-trione]	1 to 10 nM
O=C1CN(c2c(O)cc3ccc(CO)cc3c2F)S(=O)(=O)N1 [Compound 185, 5-[1-fluoro-3-hydroxy-7-(hydroxymethyl)naphthalen-2-yl]-1λ^6,2,5-thiadiazolidine-1,1,3-trione]	10 to 100 nM
O=C1CN(c2c(O)cc3ccc(OCCn4cccn4)cc3c2F)S(=O)(=O)N1 [Compound 188, 5-{1-fluoro-3-hydroxy-7-[2-(1H-pyrazol-1-yl)ethoxy]naphthalen-2-yl}-1λ^6,2,5-thiadiazolidine-1,1,3-trione]	1 to 10 nM
CC1(CCOc2ccc3cc(O)c(N4CC(=O)NS4(=O)=O)c(F)c3c2)CC1 [Compound 193, 5-{1-fluoro-3-hydroxy-7-[2-(1-methylcyclopropyl)ethoxy]naphthalen-2-yl}-1λ^6,2,5-thiadiazolidine-1,1,3-trione]	10 to 100 nM
Nc1cccc(CS(=O)(=O)N2CC=C(c3ccc4cc(O)c(N5CC(=O)NS5(=O)=O)c(F)c4c3)C2)c1 [Compound 194, 5-(7-{1-[(3-aminophenyl)methanesulfonyl]-2,5-dihydro-1H-pyrrol-3-yl}-1-fluoro-3-hydroxynaphthalen-2-yl)-1λ^6,2,5-thiadiazolidine-1,1,3-trione]	1 to 10 nM
Nc1ccccc1CS(=O)(=O)N1CC=C(c2ccc3cc(O)c(N4CC(=O)NS4(=O)=O)c(F)c3c2)C1 [Compound 195, 5-(7-{1-[(2-aminophenyl)methanesulfonyl]-2,5-dihydro-1H-pyrrol-3-yl}-1-fluoro-3-hydroxynaphthalen-2-yl)-1λ^6,2,5-thiadiazolidine-1,1,3-trione]	1 to 10 nM
O=C1CN(c2c(O)cc3ccc(OCC(F)(F)F)cc3c2F)S(=O)(=O)N1 [Compound 197, 5-[1-fluoro-3-hydroxy-7-(2,2,2-trifluoroethoxy)naphthalen-2-yl]-1λ^6,2,5-thiadiazolidine-1,1,3-trione]	> 100 nM
